{
  "source": "paper PMC7708037",
  "about": "“Targeting OGG1 arrests cancer cell proliferation by inducing replication stress” (Nucleic Acids Research, 2020)",
  "key": {"cancer cell lines": {"system": "cancer cell lines", "experiment": "Resazurin viability, cell line panel", "format": "cell-based", "protocol": "Cells were seeded in 96- or 384-well plates and incubated for 3 days for combination experiments or 5 days for single-drug exposure experiments. Resazurin (R7017, SigmaAldrich) was added to a final concentration of 0.01 mg/ml resazurin and fluorescence was measured at ex530/em590 after incubation for 2, 4 or 6 h. Curves were fitted using XLfit software (IDBS) or Prism 8.0 (Graphpad Software), and EC50 values were determined.\nFigure 3. The OGG1 inhibitor TH5487 is selectively toxic to oncogene-expressing cells and cancer cell lines. (A) Close-up view of ligand TH5487 (green) binding to human OGG1. Important residues in the binding site are marked, hydrogen bond interactions are shown in black dashed line, water (red sphere)-mediated interactions in grey dashed line. (B) Comparison between the binding of ligand TH5487 (green) to human OGG1 (gray) with the structure of TH5675 (pink) bound to mouse OGG1 (yellow, PDB 6G3Y). (C) Viability of BJ-Tert and BJ-Ras cells exposed to the indicated concentrations TH5487 for five days. Data are average ±SD of four technical replicates from two independent experiments. (D) Clonogenic survival of cell lines exposed to TH5487. The cancer cell lines ACHN and H460, and the non-transformed cell lines MRC5 and Ogg1^−/− mouse embryonic fibroblasts (MEF) were incubated for 6–11 days in the presence of the indicated concentrations TH5487, followed by colony enumeration. Data are average ±SD values of four technical replicates, representative of three independent experiments. (E) TH5487 selectively decreases viability of cancer cell lines. EC50-values of 34 cancer (red) and 7 non-transformed cell lines (blue). Cells were exposed to a dilution series of TH5487 for five days followed by a viability assessment using resazurin. All cell lines were tested in two to ten independent experiments. Each point represents the EC50-value from one experiment (average of two or three technical replicates). (F) Comparative analysis of EC50 values for TH5487 in cancer- and non-transformed cell lines, and CD34+ hematopoietic stem cells, CD34- fraction from cord blood or PBMCs from healthy donor blood. All primary blood cells were tested upon activation with Dynabeads/Phytohemagglutinin or not and exposed to a dilution series of TH5487 to calculate EC50 values by resazurin assay."}, "[1]": {"system": "MCM4 gene promoter in A3 cells", "experiment": "Oxidative DNA damage within MCM4 gene promoter (qPCR)", "format": "cell-based, human", "conditions": "10 μM, 72 h", "protocol": "We adapted the procedure described by O’Callaghan et al. ([46]) to measure oxidative DNA damage at the MCM4 gene promoter region. This is a qPCR method based on differences in PCR kinetics between DNA template digested by FPG and undigested DNA. We have modified the original protocol to incorporate another purified human OGG1 to quantify the accumulation of base lesions specific for OGG1, 8-oxoguanine. Conditions used for incubation were 200 ng of gDNA together with 2.4 μM of hOGG1 during 4 h. The quantitative real-time amplification of genomic DNA was performed as described by O’Callaghan et al. ([46]). Specific primers were used at a final concentration of 100 nM (promoterMCM4-F: 5′-GCTGTGATTGGTGAGGCCC -3′; promoterMCM4-R: 5′-CAAACCGCGAGACCCAGAG-3′) . Amplification cycling conditions were 10 min at 95°C, followed by 40 cycles of 95°C for 15 s and 60°C for 1 min. ΔCT method was run in an ABI quant studio 1 and all samples were loaded and analyzed in triplicate.\nFigure 6. TH5487 treatment induces a downregulation of DNA replication genes (A) Gene Set Enrichment analysis plot of the DNA Replication Gene Ontology Gene Set. […] Only genes with a mean normalized count >5 were analyzed. […] Statistical significance was determined using a two-sided unpaired t-test (ns, non-significant, *P < 0.05, **P < 0.01, ***P < 0.001 and ****P < 0.0001)."}},
  "data": [
    {"smiles": "O=C(Nc1ccc(I)cc1)N1CCC(n2c(=O)[nH]c3c(Br)cccc32)CC1", "note": "[TH5487]", "values": [
      {"measurement": "Selectivity of growth inhibition, cancer vs non-transformed cell lines", "setting": "cancer cell lines; large panel of cancer and non-transformed cell lines, 5 days", "value": "caused loss of viability in cancer cells while being better tolerated in non-transformed cell lines"},
      {"measurement": "EC50", "setting": "cancer cell lines; tested cancer cell lines, Figure 3F, read-out: EC50 (loss of proliferation), average over cell lines", "value": "17.9 ± 6.9", "unit": "µM"},
      {"measurement": "Oxidative DNA damage at SP1 binding motif of MCM4 promoter", "setting": "[1]", "value": "significant accumulation of oxidative DNA damage"}
    ]}
  ]
}
